Columns and labels:
TRKC-G623R = target: T1, TRKC-G623R (Homo sapiens, UniProt Q16288, G623R); test: TRK kinase mutant inhibition (HTRF), TRKC-G623R; type: biochemical
T1 construct: purchased Carna Biosciences

TRKB = target: T2, TRKB (Homo sapiens, UniProt Q16620); test: In vitro biochemical HTRF KinEASE kinase inhibition, TRKB; details: wild-type kinase, final ATP 2.56 μmol/L
T2 construct: purchased Carna Biosciences 08-187
Experimental: The material and the method are as follows: wild-type kinases such as TRKA, TRKB and TRKC, and mutant kinases such as TRKA-G595R, TRKA-G667C, TRKA-F589L, TRKC-G623R and TRKC-G696A, and are derived from Carna Biosciences 08-186, 08-187, 08-197; HTRF KinEASE TKkit (Cisbio 62TKO PEC); 384 well plates (Greiner corporation); ATP (Life technologies PV 3227), MgCl2 (sigma); PHERAstar FS Multifunctional microplate reader (BMG Co.); low speed centrifuge (StaiteXiangyi corporation); incubator (Binder company).
Preparing a compound working solution: the dispensed compounds were removed from the freezer prior to testing and diluted to 100× concentration with pure DMSO; then the compound was diluted to the desired concentration of 4× with deionized water;
Preparation of 1.33× enzyme buffer (enzyme buffer): 5× enzyme buffer (from HTRF kit) was diluted to 1.33× with deionized water and the corresponding ingredients were added at a final concentration of 1.33×: 1.33 mmol/L Dithiothreitol (DTT), 1.33 mmol/L MnCl2, 6.65 mmol/L MgCl2 and 39.9 nmol/L SEB;
Preparation of a kinase working solution: TRKA, TRKB and TRKC were diluted with 1.33× enzyme buffer to the required concentrations of 2× of 0.404 ng/μL, 0.304 ng/μL and 0.236 ng/μL, respectively;
Preparing a substrate working solution: a mixture of TK Substrate Blr diluted to the desired final concentration of 4× (from HTRF kit) and ATP (10 mM) with 1.33× enzyme buffer; the final ATP concentrations for TRKA, TRKB, and TRKC were: 3.727 μmol/L, 2.56 μmol/L and 2.526 μmol/L. The TK Substrate-biotin (from HTRF KinEASE TKkit) final concentrations were all: 0.2 μmol/L.
Preparing a detection working solution: 16.67 μmol/L of Streptavidin-XL665 (Streptavidin-XL 665) were diluted to the desired final concentration of 4× with HTRF test buffer and then mixed with an equal volume of Antibody-europium Cryptate (Antibody-Cryptate) (both from HTRF kits).
An enzyme reaction step: add 4 μL of kinase working solution to each well of a low volume 384 microwell plate along with 4 μL of 1.33× enzyme buffer as a Negative control (Negative); add 2 μl of compound working solution to the wells, while adding 2 μl of […] aqueous solution as a zero compound concentration control (i.e., Positive control, Positive); incubating at 25° C. for 5 min; add 2 μL of substrate working solution to the wells to start the enzymatic reaction, shake the reaction for 30 min at 37° C.
HTRF reagent detection step: adding […] to the hole to terminate the reaction; reacting for 1 h at 25° C.;
Reading of HTRF signal: the PHERAstar FS reading is adopted to detect signals, and the corresponding setting of the instrument is as follows:
For the raw data read out per well, the ratio=665 nm/620 nm;
Calculation of inhibition rate:
Calculation of IC50 values: with the logarithm of the compound concentration as abscissa and the inhibition as ordinate, a non-linear curve was fitted in GraphPad Prism 5: log (inhibitor) vs. response—Variable slope, and calculating the concentration of the compound to be detected, namely IC50, when the enzyme activity inhibition rate is 50%.

TRKA = target: T3, TRKA (Homo sapiens, UniProt P04629); test: In vitro biochemical HTRF KinEASE kinase inhibition, TRKA; details: wild-type kinase, final ATP 3.727 μmol/L; read-out: TRKA IC50
T3 construct: purchased Carna Biosciences 08-186
T3 sequence (P04629 33-796): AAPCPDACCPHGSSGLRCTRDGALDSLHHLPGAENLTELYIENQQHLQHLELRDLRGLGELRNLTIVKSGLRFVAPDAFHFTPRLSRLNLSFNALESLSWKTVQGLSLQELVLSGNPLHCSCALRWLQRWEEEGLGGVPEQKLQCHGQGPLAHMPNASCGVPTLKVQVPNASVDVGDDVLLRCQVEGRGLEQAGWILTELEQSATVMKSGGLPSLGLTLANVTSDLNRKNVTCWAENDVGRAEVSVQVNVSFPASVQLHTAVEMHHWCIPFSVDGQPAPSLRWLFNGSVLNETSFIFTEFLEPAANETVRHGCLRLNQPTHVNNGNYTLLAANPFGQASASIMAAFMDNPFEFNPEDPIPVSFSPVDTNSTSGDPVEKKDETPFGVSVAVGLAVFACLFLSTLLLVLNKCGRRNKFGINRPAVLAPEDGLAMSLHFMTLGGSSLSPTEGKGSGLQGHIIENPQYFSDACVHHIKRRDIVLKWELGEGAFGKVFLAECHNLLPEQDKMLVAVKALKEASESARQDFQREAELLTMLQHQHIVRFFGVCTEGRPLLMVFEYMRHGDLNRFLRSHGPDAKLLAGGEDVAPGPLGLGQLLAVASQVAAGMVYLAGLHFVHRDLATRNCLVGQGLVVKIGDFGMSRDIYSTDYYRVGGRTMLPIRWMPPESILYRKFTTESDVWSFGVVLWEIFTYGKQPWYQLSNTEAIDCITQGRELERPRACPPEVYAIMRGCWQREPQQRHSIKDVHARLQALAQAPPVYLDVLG

Human NSCLC H2228 [1] = test: Antitumor activity on nude mouse xenograft tumor model (Test Example 4); type: in vivo, nude mice (BALB/c)
Experimental: The efficacy of the compounds of the invention was evaluated by a standard murine model of the transplanted tumor. Human NSCLC H2228 was cultured, collected, and inoculated subcutaneously to 5-6 weeks old female nude mice (BALB/c, Shanghai Ling Chang Biotech, Ltd.). When the tumor volume reached 100-150 mm^3, the animals were randomly divided into a solvent control group ([…] in water) and a compound group (6 animals per group). Animals were subsequently gavaged with the compounds of the examples (corresponding dose, dissolved in […] in water), starting anywhere from 0 to 7 days after tumor cell inoculation, and were performed twice daily in the experiment.
The experimental index is to examine the influence of the compound of the embodiment on the growth of the tumor, and the specific index is […].
(§1) Tumor diameters were measured twice weekly with a vernier caliper and tumor volume (V) was calculated as:
(§2) V=½×a×b^2 wherein a and b represent length and width, respectively.
(§3) T/C(%)=(T−T0)/(C−C0)×100 where T, C is the tumor volume at the end of the experiment; T0, C0 are tumor volumes at the beginning of the experiment.
(§4) Partial tumor regression (PR) is defined if the tumor shrinks from the initial volume, i.e., T<T0 or C<C0; if the tumor completely disappears, it is defined as complete tumor regression (CR).
(§5) Comparison between the two groups of tumor volumes was tested using a two-tailed Student's t test, with P<0.05 defined as statistically significant differences.
BID below refers to twice daily dosing.

TRKA-G667C = target: T4, TRKA-G667C (Homo sapiens, UniProt P04629, G667C); test: TRK kinase mutant inhibition (HTRF), TRKA-G667C; type: biochemical
T4 construct: purchased Carna Biosciences
T4 sequence (P04629 33-796 G667C): as the sequence (P04629 33-796) above, with G635C counted along it

[2] = Drug metabolism study in rats, intravenous administration; details: rat
TRKA-G595R = target: T5, TRKA-G595R (Homo sapiens, UniProt P04629, G595R); test: TRK kinase mutant inhibition (HTRF), TRKA-G595R; type: biochemical
T5 construct: purchased Carna Biosciences
T5 sequence (P04629 33-796 G595R): as the sequence (P04629 33-796) above, with G563R counted along it

TRKA-F589L = target: T6, TRKA-F589L (Homo sapiens, UniProt P04629, F589L); test: TRK kinase mutant inhibition (HTRF), TRKA-F589L; type: biochemical
T6 construct: purchased Carna Biosciences
T6 sequence (P04629 33-796 F589L): as the sequence (P04629 33-796) above, with F557L counted along it

TRKC-G696A = target: T7, TRKC-G696A (Homo sapiens, UniProt Q16288, G696A); test: TRK kinase mutant inhibition (HTRF), TRKC-G696A; type: biochemical
T7 construct: purchased Carna Biosciences
T7 sequence (Q16288 32-839 G696A): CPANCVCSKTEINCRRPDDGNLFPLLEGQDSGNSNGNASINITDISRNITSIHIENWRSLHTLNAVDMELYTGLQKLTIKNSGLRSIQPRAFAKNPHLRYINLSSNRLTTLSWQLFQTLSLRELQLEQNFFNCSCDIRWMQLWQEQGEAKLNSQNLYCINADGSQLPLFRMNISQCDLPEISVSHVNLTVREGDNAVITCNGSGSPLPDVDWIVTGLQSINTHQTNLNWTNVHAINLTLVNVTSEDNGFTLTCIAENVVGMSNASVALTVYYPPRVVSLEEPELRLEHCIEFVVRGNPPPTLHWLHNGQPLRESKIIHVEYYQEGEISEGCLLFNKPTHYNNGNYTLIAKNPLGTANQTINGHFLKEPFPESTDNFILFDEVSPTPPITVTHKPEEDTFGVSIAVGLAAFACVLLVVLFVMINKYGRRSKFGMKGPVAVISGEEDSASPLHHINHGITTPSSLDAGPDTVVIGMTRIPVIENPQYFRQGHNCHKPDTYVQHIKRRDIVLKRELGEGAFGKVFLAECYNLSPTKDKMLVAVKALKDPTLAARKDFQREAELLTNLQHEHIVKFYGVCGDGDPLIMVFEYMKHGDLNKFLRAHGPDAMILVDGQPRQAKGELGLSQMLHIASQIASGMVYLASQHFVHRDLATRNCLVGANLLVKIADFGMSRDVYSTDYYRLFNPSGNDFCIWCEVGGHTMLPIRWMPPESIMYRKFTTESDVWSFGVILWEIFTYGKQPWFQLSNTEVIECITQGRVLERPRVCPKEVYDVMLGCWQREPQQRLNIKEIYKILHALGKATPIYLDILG

[3] = Drug metabolism study in rats, oral administration; details: rat
TRKC = target: T8, TRKC (Homo sapiens, UniProt Q16288); test: In vitro biochemical HTRF KinEASE kinase inhibition, TRKC; details: wild-type kinase, final ATP 2.526 μmol/L
T8 construct: purchased Carna Biosciences 08-197
T8 sequence (Q16288 32-825 isoform Q16288-3 limits assumed): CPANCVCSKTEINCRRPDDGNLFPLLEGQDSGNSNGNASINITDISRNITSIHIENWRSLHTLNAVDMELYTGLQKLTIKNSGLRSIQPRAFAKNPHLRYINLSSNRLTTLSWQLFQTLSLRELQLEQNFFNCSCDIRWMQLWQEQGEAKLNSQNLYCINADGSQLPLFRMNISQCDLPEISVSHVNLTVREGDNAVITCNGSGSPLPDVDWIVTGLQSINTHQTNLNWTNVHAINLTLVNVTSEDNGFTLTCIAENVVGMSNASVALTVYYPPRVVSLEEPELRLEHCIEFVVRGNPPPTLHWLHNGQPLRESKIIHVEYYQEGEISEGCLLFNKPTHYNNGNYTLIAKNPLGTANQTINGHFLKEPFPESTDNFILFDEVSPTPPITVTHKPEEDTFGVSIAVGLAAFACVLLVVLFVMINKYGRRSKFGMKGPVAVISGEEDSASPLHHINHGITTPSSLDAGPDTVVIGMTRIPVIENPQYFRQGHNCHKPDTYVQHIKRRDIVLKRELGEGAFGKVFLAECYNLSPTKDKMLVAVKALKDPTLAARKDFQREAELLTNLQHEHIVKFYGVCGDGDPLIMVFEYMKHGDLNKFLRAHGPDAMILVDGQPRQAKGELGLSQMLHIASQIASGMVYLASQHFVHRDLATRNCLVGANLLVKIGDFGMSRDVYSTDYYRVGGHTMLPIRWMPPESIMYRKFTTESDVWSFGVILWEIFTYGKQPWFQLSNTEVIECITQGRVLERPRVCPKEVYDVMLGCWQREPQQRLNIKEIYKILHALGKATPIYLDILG

Human NSCLC H2228 [4] = test: Antitumor activity on nude mouse xenograft tumor model (Test Example 5); type: in vivo, nude mice (BALB/c); details: for Partially regression: D14, tumors regressed/animals per group
Experimental: The efficacy of the compounds of the invention was assessed by a standard murine model of transplanted tumors. Human NSCLC H2228 was cultured, collected, and inoculated subcutaneously to 5-6 weeks old female nude mice (BALB/c, Shanghai Ling Chang Biotech, Ltd.). When the tumor volume reached 100-150 mm3, the animals were randomly divided into a solvent control group (70% PEG-400 in water) and a compound group (6 animals per group).
Animals were subsequently gavaged with the compounds of the examples (corresponding doses, dissolved in 70% PEG-400 in water), starting anywhere from 0 to 13 days after tumor cell inoculation, and were performed once or twice daily in the experiment.
The experimental index is to examine the influence of the compound of the embodiment on the growth of the tumor, and the specific index is T/C % or tumor inhibition rate TGI (%).
as §1, §2, §3
Tumor inhibition rate (TGI) (%) 100−T/C (%).
When tumor regression occurred, Tumor inhibition rate (TGI) (%) 100−(T−T0)/T0×100
as §4, §5
BID below indicates twice daily dosing and QD indicates once daily dosing.

[5] = 50 mg/kg BID D0-7, D14, tumors regressed/animals per group

T1 sequence (Q16288 32-839 G623R): as the sequence (Q16288 32-839 G696A) above, with G592R, A665G counted along it
T2 sequence (Q16620 32-822): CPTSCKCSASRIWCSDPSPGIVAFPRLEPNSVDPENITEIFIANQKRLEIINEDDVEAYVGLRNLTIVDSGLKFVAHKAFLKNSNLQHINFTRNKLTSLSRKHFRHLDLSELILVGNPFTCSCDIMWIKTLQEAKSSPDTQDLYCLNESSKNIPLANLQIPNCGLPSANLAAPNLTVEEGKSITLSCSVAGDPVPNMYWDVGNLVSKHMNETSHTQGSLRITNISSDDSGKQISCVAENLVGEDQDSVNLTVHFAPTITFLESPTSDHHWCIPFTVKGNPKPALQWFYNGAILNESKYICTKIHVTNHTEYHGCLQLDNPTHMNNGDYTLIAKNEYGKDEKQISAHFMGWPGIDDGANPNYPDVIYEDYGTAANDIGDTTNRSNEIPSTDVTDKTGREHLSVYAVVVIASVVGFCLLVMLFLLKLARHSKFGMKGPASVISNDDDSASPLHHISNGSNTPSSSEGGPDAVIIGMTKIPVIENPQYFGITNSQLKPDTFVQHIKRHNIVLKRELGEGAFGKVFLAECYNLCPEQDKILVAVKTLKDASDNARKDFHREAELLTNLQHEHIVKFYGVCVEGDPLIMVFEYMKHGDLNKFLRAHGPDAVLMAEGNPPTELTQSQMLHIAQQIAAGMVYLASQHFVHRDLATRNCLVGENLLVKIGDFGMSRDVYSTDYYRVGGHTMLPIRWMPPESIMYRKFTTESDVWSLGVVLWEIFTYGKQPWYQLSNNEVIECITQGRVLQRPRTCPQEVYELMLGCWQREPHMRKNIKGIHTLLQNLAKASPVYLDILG

C[C@@H](Nc1ccn2ncc(-c3cnn(CCO)c3)c2n1)c1cc(F)ccc1OCC(F)F [Compound 5, (R)-2-(4-(5-((1-(2-(2,2-difluoroethoxy)-5-fluorophenyl)ethyl)amino)pyrazolo [1,5-a]pyrimidin-3-yl)-1H-pyrazol-1-yl) ethanol]
IC50 (TRKC-G623R): 0.61 nM | IC50 (TRKB): 3.9 nM | IC50 (TRKA): 3.6 nM | Partially regression (Human NSCLC H2228 [1]; [5]): 2/6 | complete regression (Human NSCLC H2228 [1]; [5]): 3/6 | Tumor growth inhibition value D14 (Human NSCLC H2228 [1]; 50 mg/kg BID gavage D0-7, dosing stopped from D8, read at D14, 50 mg/kg): 155% | Tumor growth inhibition value D14 (Human NSCLC H2228 [1]; 50 mg/kg BID gavage D0-7, dosing stopped from D8, read at D14, listed as compound 5, 50 mg/kg): 155% | tumor completely regressed D7 (Human NSCLC H2228 [1]; 50 mg/kg BIDx8, D7, tumors regressed/animals per group): 4/6 | tumor inhibition rate D7 (Human NSCLC H2228 [1]; 50 mg/kg BIDx8, read at D7): 182% | IC50 (TRKA-G667C): 0.95 nM | Vd ([2]; in vivo, iv, 1 mg/kg): 40 L/kg | clearance ([2]; in vivo, iv, 1 mg/kg): 83.3 mL/min/kg | Cmax ([2]; intravenous injection 1 mg/kg): 104.1 ng/mL | T1/2 ([2]; intravenous injection 1 mg/kg): 5.7 h | AUC(0-t) ([2]; plasma, iv, 1 mg/kg): 194 ng·h/mL | MRT last ([2]; plasma, iv, 1 mg/kg): 3.89 h | IC50 (TRKA-G595R): 0.88 nM | IC50 (TRKA-F589L): 0.29 nM | IC50 (TRKC-G696A): 1 nM | bioavailability ([3]; in vivo, po, 5 mg/kg): 49.3% | CL ([3]; oral 5 mg/kg): 158 mL/min/kg | Cmax ([3]; oral 5 mg/kg): 217.7 ng/mL | T1/2 ([3]; oral 5 mg/kg): 5.7 h | Tmax ([3]; oral 5 mg/kg): 0.25 h | Vz ([3]; oral 5 mg/kg): 79.26 L/kg | AUC(0-t) ([3]; plasma, po, 5 mg/kg): 479 ng·h/mL | MRT last ([3]; plasma, po, 5 mg/kg): 3.6 h | IC50 (TRKC): 11.1 nM

C[C@@H](Nc1ccn2ncc(-c3cn[nH]c3)c2n1)c1cc(F)ccc1OCC(F)(F)F [Compound b8-30, (R)-N-(1-(5-fluoro-2-(2,2,2-trifluoroethoxy)phenyl)ethyl)-3-(1H-pyrazol-4-yl) pyrazolo [1,5-a] pyrimidin-5-amine]
IC50 (TRKC-G623R): 0.73 nM | IC50 (TRKB): 3.2 nM | IC50 (TRKA): 2.8 nM | IC50 (TRKA-G667C): 0.76 nM | AUC(0-t) ([2]; plasma, iv, 1 mg/kg): 518 ng·h/mL | Cmax ([2]; plasma, iv, 1 mg/kg): 174 ng/mL | MRT last ([2]; plasma, iv, 1 mg/kg): 4.2 h | Vd ([2]; plasma, iv, 1 mg/kg): 12.7 L/kg | clearance ([2]; plasma, iv, 1 mg/kg): 30.3 mL/min/kg | half-life ([2]; plasma, iv, 1 mg/kg): 4.95 h | IC50 (TRKA-G595R): 0.75 nM | IC50 (TRKA-F589L): 0.44 nM | Partially regression (Human NSCLC H2228 [4]; 25 mg/kg BID D0-13 (50 mg/kg from D8)): 6/6 | Tumor growth inhibition value/ D14 (Human NSCLC H2228 [4]; 25 mg/kg BID D0-13 (dose increased from D8 to 50 mg/kg), read at D14): 127% | Tumor growth inhibition value/ D14 (Human NSCLC H2228 [4]; 25 mg/kg BID D0-13 (dose increased from D8 to 50 mg/kg), read at D14, listed as compound b8-30): 127% | tumor inhibition rate D7 (Human NSCLC H2228 [4]; 25 mg/kg BID, read at D7): 95% | Partially regression (Human NSCLC H2228 [4]; 50 mg/kg QD D0-10 (100 mg/kg from D8)): 3/6 | Tumor growth inhibition value/ D14 (Human NSCLC H2228 [4]; 50 mg/kg QD D0-10 (dose raised from D8 to 100 mg/kg), read at D14): 110% | Tumor growth inhibition value/ D14 (Human NSCLC H2228 [4]; 50 mg/kg QD D0-10 (dose raised from D8 to 100 mg/kg), read at D14, listed as compound b8-30): 110% | tumor suppression D7 (Human NSCLC H2228 [4]; 50 mg/kg QD, read at D7): 96% | IC50 (TRKC-G696A): 1.3 nM | CL ([3]; oral 5 mg/kg): 57.7 mL/min/kg | Vz ([3]; oral 5 mg/kg): 19.23 L/kg | AUC(0-t) ([3]; plasma, po, 5 mg/kg): 1460 ng·h/mL | Cmax ([3]; plasma, po, 5 mg/kg): 283 ng/mL | MRT last ([3]; plasma, po, 5 mg/kg): 4.27 h | Tmax ([3]; plasma, po, 5 mg/kg): 2 h | bioavailability ([3]; plasma, po, 5 mg/kg): 56.2% | half-life ([3]; plasma, po, 5 mg/kg): 4 h | IC50 (TRKC): 3.9 nM
